Tests used:
Assay in all cases: relative viability (nuclei count vs DMSO), 5 days (fraction); higher = more cells survive
RU-SKI 43 = compound: CC[C@@H](C)CNCC(=O)N1CCC2=C([C@@H]1COC3=CC=CC(=C3)C)C=CS2 [RU-SKI 43]
Summary of the method: (§1)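 MetaXpress counted nuclei in 4× images of lung cancer cell lines that had been fixed, permeabilised and Hoechst-stained in one step. Before that, cells in 1536-well plates were kept overnight at 37 °C, pinned with five √10-spaced library-drug doses on vehicle-anchored plates, and cultured 5 days without medium change. Viability takes treated-well nuclei over vehicle-well nuclei and uses the median across plates. Plates were accepted only at control CV below 25% and at least one doubling.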

Irinotecan = compound: CCc1c2c(nc3ccc(OC(=O)N4CCC(N5CCCCC5)CC4)cc13)-c1cc3c(c(=O)n1C2)COC(=O)[C@]3(O)CC [Irinotecan]
Summary of the method: as §1

MK-8033 = compound: Cn1cc(-c2cnc3ccc4ccc(CS(=O)(=O)NCc5ccccn5)cc4c(=O)c3c2)cn1 [MK-8033]
Summary of the method: as §1

Irinotecan + Crizotinib = compound: CCc1c2c(nc3ccc(OC(=O)N4CCC(N5CCCCC5)CC4)cc13)-c1cc3c(c(=O)n1C2)COC(=O)[C@]3(O)CC [Irinotecan] + C[C@@H](Oc1cc(-c2cnn(C3CCNCC3)c2)cnc1N)c1c(Cl)ccc(F)c1Cl [Crizotinib] (partner 1 µM)
Summary of the method: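 Lung cancer cell lines, seeded in 1536-well plates, were treated the following day by pin tool with a single drug or with five library-drug doses (not always all listed) in √10 steps on top of a fixed anchor-drug dose. Cells were fixed and nuclei stained in one step after 5 days, and nuclei were counted. Relative viability is the nuclei count for treated wells divided by that for vehicle wells, reported as medians of duplicate plates.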

Cell Line | relative viability (RU-SKI 43; 0.1 µM) | relative viability (RU-SKI 43; 0.3162 µM) | relative viability (RU-SKI 43; 1 µM) | relative viability (RU-SKI 43; 3.162 µM) | relative viability (RU-SKI 43; 10 µM) | relative viability (Irinotecan; 0.6325 µM) | relative viability (Irinotecan; 2 µM) | relative viability (Irinotecan; 6.325 µM) | relative viability (Irinotecan; 20 µM) | relative viability (MK-8033; 0.02 µM) | relative viability (MK-8033; 0.06325 µM) | relative viability (MK-8033; 0.2 µM) | relative viability (MK-8033; 0.6325 µM) | relative viability (MK-8033; 2 µM) | relative viability (Irinotecan + Crizotinib; first compound 0.6325 µM) | relative viability (Irinotecan + Crizotinib; first compound 2 µM) | relative viability (Irinotecan + Crizotinib; first compound 6.325 µM) | relative viability (Irinotecan + Crizotinib; first compound 20 µM)
NCI-H1437 | 1.07 | 1.04 | 1.14 | 1.04 | 0.986 | 0.824 | 0.719 | 0.426 | 0.289 | 0.964 | 0.972 | 0.919 | 1.01 | 0.93 | 0.962 | 0.664 | 0.323 | 0.24
NCI-H1563 | 0.965 | 0.928 | 0.966 | 1.06 | 0.852 | 1.02 | 1.01 | 0.974 | 0.601 | 0.975 | 0.918 | 0.927 | 0.988 | 0.98 | 0.865 | 0.882 | 0.865 | 0.344
NCI-H1650 | 0.942 | 0.999 | 1.04 | 0.977 | 0.853 | 0.677 | 0.836 | 0.489 | 0.21 | 0.942 | 0.714 | 0.853 | 0.842 | 0.848 | 0.918 | 1.23 | 0.391 | 0.179
NCI-H1651 | 0.931 | 1.01 | 1.08 | 1.09 | 0.927 | 0.676 | 0.779 | 0.458 | 0.172 | 1.01 | 0.944 | 0.934 | 1.06 | 0.971 | – | 0.693 | 0.479 | 0.135
NCI-H1666 | 0.953 | 0.954 | 0.967 | 1.04 | 0.865 | 0.889 | 0.763 | 0.573 | 0.459 | 0.984 | 0.94 | 0.945 | 0.947 | 0.96 | 0.617 | 0.464 | 0.47 | 0.357
NCI-H1703 | 0.82 | 1.23 | 0.854 | 0.972 | 0.52 | 0.761 | 1.32 | 0.613 | 0.205 | 0.896 | 0.85 | 0.825 | 0.911 | 0.855 | 0.737 | 0.58 | 0.447 | 0.182
NCI-H1734 | 0.961 | 1.05 | 1.03 | 1.07 | 0.88 | – | 0.77 | 0.195 | 0.181 | 1.1 | 0.845 | 0.944 | 0.993 | 0.985 | 0.618 | 0.336 | 0.226 | 0.177
NCI-H1755 | 1.03 | 1.03 | 1.1 | 1.1 | 1 | 0.966 | 0.984 | 0.433 | 0.408 | 0.982 | 1.02 | 0.945 | 0.973 | 0.974 | 0.712 | 0.497 | 0.332 | 0.451
NCI-H1792 | 0.844 | 1.08 | 1.77 | 0.889 | 1.03 | 0.862 | 0.933 | 0.393 | 0.354 | 1.22 | 0.958 | 0.804 | 0.9 | 0.805 | 0.918 | 1.05 | 0.536 | 0.239
NCI-H1915 | 1.06 | 1.11 | 1.08 | 1 | 1.02 | 0.353 | 0.475 | 0.224 | 0.214 | 1 | 0.916 | 0.963 | 1.02 | 0.959 | 0.417 | 0.369 | 0.178 | 0.227
NCI-H1944 | 1.01 | 0.98 | 1.08 | 0.968 | 0.932 | 0.67 | 0.559 | 0.244 | 0.194 | 0.927 | 0.768 | 0.982 | 0.968 | 1.03 | 0.561 | 0.323 | 0.231 | 0.254
NCI-H1975 | 1.07 | 1.25 | 1.05 | 1.01 | 0.922 | 0.894 | 1.04 | 0.622 | 0.196 | 0.892 | 0.905 | 0.862 | 0.854 | 0.931 | 0.914 | 1 | 0.401 | 0.329
NCI-H1993 | 0.927 | 0.899 | 1.06 | 0.924 | 0.925 | 0.596 | 0.889 | 0.667 | 0.628 | 0.925 | 0.736 | 0.663 | 0.736 | 0.727 | 0.897 | 0.656 | 0.671 | 0.664
NCI-H2009 | 1.02 | 1.07 | 1.07 | 1.06 | 1.01 | 0.716 | 0.733 | 0.272 | 0.153 | 1.05 | 1.01 | 0.953 | 0.945 | 0.961 | 0.912 | 0.857 | 0.233 | 0.224
NCI-H2023 | 1.06 | 1.47 | 1.11 | 1.1 | 0.905 | 0.881 | 0.829 | 0.217 | 0.0696 | 0.941 | 0.88 | 0.838 | 0.846 | 0.715 | 0.676 | 0.532 | 0.205 | 0.0482

Source: the supplement of paper PMC10307832
